Consider 12 compounds from US20070154573A1 (priority 2005, published 2007).

One assay has as its system HIV-1. The note with it: 50% protection of MT-4 cells, MTT-method.
Another assay deals with MT-4 cells. Briefly: Viability of mock-infected MT-4 cells (MTT). The format is cell-based. The conditions noted are these: viability of mock-infected MT-4 cells reduced by 50%. On the procedure: Compound concentrations (μg/ml) required to reduce the viability of mock-infected MT-4 cells by 50% are determined by the MTT-method.
Assay [1] has as its system T24 (bladder). The conditions noted are these: for IC50: Homo sapiens, read-out: IC50 of standard agent alone.
The test system of assay [2] is PANC1 (pancreas). The conditions noted are these: for IC50: Homo sapiens, PANC-1, read-out: IC50 of standard agent alone.
Assay [3] relates to T24 (bladder).
Assay [4] deals with PANC1 (pancreas).
Assay [5] deals with reverse-transcriptase enzyme. As to the kind of experiment: Efficacy against reverse-transcriptase (RT). The format is biochemical. The conditions noted are these: in vitro. The protocol:
5.a Efficacy Against Reverse-Transcriptase (RT) Using Phosphonoformate as Inhibitors of RT • The inhibitory effect of the cold extract according to the present invention against the reverse-transcriptase enzyme is also studied using three different concentrations (0.1, 1 and 10 μg/ml) in vitro and compared with the phosphonoformate (PFA) as inhibitors of RT.

Molecules are shown by their SMILES. Values after ≈ are worked out from the molar mass of the structure shown. Like-named read-outs stand apart in the source and are kept apart here. Marks after values point to notes of the source that are not given here.

Source text for HIV-1: 1-Mock-infected MT-4 cell lines are used to support the growth of the HIV-1 virus.
Compound concentrations (μg/ml) required to achieve 50% protection of MT-4 cells from the HIV-1 induced cytopathogenecity, as determined by the MTT-method.

For `Cc1cn([C@H]2C[C@H](N=[N+]=[N-])[C@@H](CO)O2)c(=O)[nH]c1=O` [AZT], the “EC50 (HIV-1)” value with HIV-1 is 0.01 µg/mL (≈ 0.0374 µM). Also, in the assay on MT-4 cells, the “IC50 (MT-4)” value is more than 10 µg/mL.

`COc1cccc2c1C(=O)c1c(O)c3c(c(O)c1C2=O)C[C@@](O)(C(=O)CO)C[C@@H]3O[C@H]1C[C@H](N)[C@H](O)[C@H](C)O1` [ADR, adriamycin]: the half-maximal inhibitory concentration (IC50) amounted to 0.004 µg/mL (≈ 0.00736 µM) in the assay with H460 (lung), 0.058 µg/mL (≈ 0.107 µM) in the assay on T24 (bladder) [1], 0.006 µg/mL (≈ 0.011 µM) with HCT116 (colon) and 0.022 µg/mL (≈ 0.0405 µM) in the assay with PANC1 (pancreas) [2].

Consider `N.N.[Cl][Pt][Cl]` [Cis-Platin, cisplatin], for which the “IC50 of standard agent alone” value in the assay on T24 (bladder) [1] (T24, no Breastin, Exp. GF649) was more than 30 µg/mL; in the assay with PANC1 (pancreas) [2] (PANC1, no Breastin, Exp. GF654) it was 5.48 µg/mL. This compound showed an IC50 with HCT116 (colon) of more than 30 µg/mL.

On to `O=c1[nH]cc(F)c(=O)[nH]1` [5-FU, 5-fluoro-uracil], for which the half-inhibitory concentration (IC50) with H460 (lung) was 0.157 µg/mL (≈ 1.21 µM); in the assay with T24 (bladder) [1], 0.429 µg/mL (≈ 3.3 µM); with PANC1 (pancreas) [2] it was 0.247 µg/mL (≈ 1.9 µM).

The compound `Nc1nc2[nH]cc(CCc3ccc(C(=O)N[C@@H](CCC(=O)O)C(=O)O)cc3)c2c(=O)[nH]1` [Alimta, alimta] had an IC50 in the assay with H460 (lung) of 0.018 µg/mL (≈ 0.0421 µM). The “standard agent alone, based on IC70 values” in the assay on PANC1 (pancreas) [2] (PANC1, no Breastin, Exp. GF683, IC70) is reported as <100^2) μg/ml.

Turning to `O=P1(N(CCCl)CCCl)NCCCO1` (stereo not shown) [CYACT, cyclophosphamide], the IC50 came out at 0.32 µg/mL (≈ 1.23 µM) with T24 (bladder) [3] and 0.193 µg/mL (≈ 0.739 µM) in the assay on PANC1 (pancreas) [4].

For `CCC1=C[C@@H]2CN(C1)Cc1c([nH]c3ccccc13)[C@@](C(=O)OC)(c1cc3c(cc1OC)N(C)[C@H]1[C@@](O)(C(=O)OC)[C@H](OC(C)=O)[C@]4(CC)C=CCN5CC[C@]31[C@@H]54)C2` [Navelbine, navelbine], the IC50 with H460 (lung) turned out to be 0.057 µg/mL (≈ 0.0732 µM); in the assay on T24 (bladder) [3], 0.144 µg/mL (≈ 0.185 µM); in the assay with PANC1 (pancreas) [4] it was 0.119 µg/mL (≈ 0.153 µM); in the assay on HCT116 (colon) it was 0.06 µg/mL (≈ 0.077 µM).

Consider `CC(=O)O[C@@]12CO[C@@H]1C[C@H](O)[C@@]1(C)C(=O)[C@H](O)C3=C(C)[C@@H](OC(=O)[C@H](O)[C@@H](NC(=O)OC(C)(C)C)c4ccccc4)C[C@@](O)([C@@H](OC(=O)c4ccccc4)[C@H]21)C3(C)C` [Taxotere, taxotere], for which the IC50 with H460 (lung) stood at 0.059 µg/mL (≈ 0.073 µM); with T24 (bladder) [3], 0.163 µg/mL (≈ 0.202 µM).

As to `O=C(O)P(=O)(O)O` [PFA, phosphonoformate], the “IC50, reverse-transcriptase enzyme” value in assay [5] was 6 to 20 µg/mL.

As for `CO[C@@]12[C@H](COC(N)=O)C3=C(C(=O)C(C)=C(N)C3=O)N1C[C@@H]1N[C@@H]12` [Mitomycin, mitomycin-C], the IC50 amounted to 0.009 µg/mL (≈ 0.0269 µM) with H460 (lung) and 0.056 µg/mL (≈ 0.167 µM) in the assay with T24 (bladder) [3].

In the case of `CC(=O)O[C@H]1C(=O)[C@@]2(C)[C@H]([C@H](OC(=O)c3ccccc3)[C@]3(O)C[C@H](OC(=O)[C@H](O)[C@@H](NC(=O)c4ccccc4)c4ccccc4)C(C)=C1C3(C)C)[C@]1(OC(C)=O)CO[C@@H]1C[C@@H]2O` [TAXOL, taxol], the IC50 in the assay on H460 (lung) came to 0.0019 µg/mL (≈ 0.00223 µM); in the assay on T24 (bladder) [1], 0.01 µg/mL (≈ 0.0117 µM); in the assay with PANC1 (pancreas) [2], 0.0019 µg/mL (≈ 0.00223 µM).

With `CC[C@@]1(O)C(=O)OCc2c1cc1n(c2=O)Cc2cc3c(CN(C)C)c(O)ccc3nc2-1` [Topotecan, topotecan], the results for the IC50 with H460 (lung), with T24 (bladder) [3] and in the assay on HCT116 (colon) were 0.0079 µg/mL (≈ 0.0187 µM), 0.0032 µg/mL (≈ 0.00759 µM) and 0.0066 µg/mL (≈ 0.0157 µM), respectively.
